This note sets out measurements from patent publication US8242117B2, “5-membered heterocycle-based p38 kinase inhibitors” (Novartis AG, priority 2003, dated 2012).

SMILES strings stand for the structures. Where only a bound is given, the exact number is not on record here.

The test concerns the target T1, p38α kinase (Homo sapiens, UniProt Q16539).
T1 construct: purchased Upstate
The test is described as follows: p38α assay (ADP release coupled to NADH oxidation). Format: biochemical. To be noted: 60 min preincubation, 0.15 mM ATP, 20 nM p38α kinase. The method, then:
cDNAs of human p38α and β were cloned by PCR. The α and β cDNAs were subcloned into DEST2 plasmid (Gateway, InVitrogen). His6-p38 fusion protein was expressed in E. coli and purified from bacterial lysates by affinity chromatography using Ni^+2-NTA-agarose. His6-p38 protein was activated by incubating with constitutively active MKK6. Active p38 was separated from MKK6 by affinity chromatography. Constitutively active MKK6 was generated in a manner similar to Raingeaud et al. [Mol. Cell. Biol., 1247-1255 (1996)].
The p38α assay employed is based on measurement of ADP released in the reaction of interest through NADH oxidation obtained by coupling with pyruvate kinase and lactate dehydrogenase reactions. The assays were performed in 384-well UV-plates. The final volume was 25 μL prepared from the addition of 2.5 μL compound dissolved in 10% DMSO, 17.5 μL of assay buffer and 5 μL of ATP. Assay buffer contains the following reagents to give final concentration in the assay: 25 mM HEPES, 20 mM 2-glycerophosphate, pH 7.6, 10 mM MgCl2, 0.1 mM sodium orthovanadate, 0.5 mM phosphoenolpyruvate, 0.12 mM NADH, 3.1 mg/ml LDH, 6.67 mg/ml pyruvate kinase, 0.25 mM peptide substrate, 2 mM DTT, 0.005% Tween 80 and 20 nM p38α kinase from Upstate. Test compounds are preincubated zith p38α kinase for 60 min and the reaction started by addition of ATP to 0.15 mM final concentration. Reaction rates were measured at 340 nm using SpectraMax plate-reading spectrophotometer for 10 min at 37° C. Inhibition data were analyzed by non-linear least-squares regression using SigmaPlot.

T1 sequence (Q16539 whole entry): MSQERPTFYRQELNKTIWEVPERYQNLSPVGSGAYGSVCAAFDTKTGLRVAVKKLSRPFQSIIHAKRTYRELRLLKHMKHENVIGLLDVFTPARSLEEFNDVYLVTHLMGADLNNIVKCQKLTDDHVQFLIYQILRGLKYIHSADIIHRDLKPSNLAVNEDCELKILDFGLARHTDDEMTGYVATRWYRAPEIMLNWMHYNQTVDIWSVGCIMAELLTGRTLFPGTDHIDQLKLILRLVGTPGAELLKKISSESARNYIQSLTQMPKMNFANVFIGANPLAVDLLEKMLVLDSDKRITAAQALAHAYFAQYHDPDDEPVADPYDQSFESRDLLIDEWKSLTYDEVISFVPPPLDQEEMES

In the case of `Cc1ccc(C(=O)NC2CC2)cc1-n1cnc(C(=O)C2CCOCC2)c1N` [Example 29, 3-[5-Amino-4-(tetrahydro-pyran-4-carbonyl)-imidazol-1-yl]-N-cyclopropyl-4-methyl-benzamide], the half-maximal inhibitory concentration (IC50) is under 1 µM. In the case of `CCOC(=O)c1c(C)nn(-c2cc(C(=O)NC3CC3)ccc2C)c1N` [Example 49, 5-Amino-1-(5-cyclopropylcarbamoyl-2-methyl-phenyl)-3-methyl-1H-pyrazole-4-carboxylic acid ethyl ester], the 50% inhibitory concentration (IC50) is under 1 µM.

Consider `Cc1ccc(C(=O)NC2CC2)cc1-n1ncc(C(=O)NC2CCc3ccccc32)c1N` (stereo not shown) [Example 135, 5-Amino-1-(5-cyclopropylcarbamoyl-2-methyl-phenyl)-1H-pyrazole-4-carboxylic acid indan-1-ylamide], for which the IC50 was under 1 µM. Turning to `Cc1ccc(C(=O)NC2CC2)cc1-n1ncc(C(=O)c2cccc(-c3nnco3)c2)c1N` [Example 53, 3-[5-Amino-4-(3-[1,3,4]oxadiazol-2-yl-benzoyl)-pyrazol-1-yl]-N-cyclopropyl-4-methylbenzamide], the IC50 was under 1 µM. Consider `Cc1ccc(C(=O)NC2CC2)cc1-n1ncc(C(=O)c2cccc(OCC(O)CO)c2)c1N` (stereo not shown) [Example 171, 3-{5-Amino-4-[3-(2,3-dihydroxy-propoxy)-benzoyl]-pyrazol-1-yl}-N-cyclopropyl-4-methylbenzamide], for which the IC50 was under 1 µM. `Cc1ccc(C(=O)NC2CC2)cc1-n1ncc(C(=O)c2cccc(CO)c2)c1N` [Example 10, 3-[5-amino-4-(3-hydroxymethyl-benzoyl)-pyrazol-1-yl]-N-cyclopropyl-4-methyl-benzamide] yielded an IC50 of under 1 µM.

Turning to `Cc1ccc(C(=O)NC2CC2)cc1-n1cnc(C(=O)c2ccc3c(c2)OCO3)c1N` [Example 87, 3-[5-Amino-4-(benzo[1,3]dioxole-5-carbonyl)-imidazol-1-yl]-N-cyclopropyl-4-methyl-benzamide], the 50% inhibitory concentration (IC50) is under 1 µM. The result for `CCOC(=O)c1cnn(-c2cc(C(=O)NC3CC3)ccc2C)c1N` [Example 48, 5-Amino-1-(5-cyclopropylcarbamoyl-2-methyl-phenyl)-1H-pyrazole-4-carboxylic acid ethyl ester] reads under 1 µM; that for `Cc1ccc(-c2nnc[nH]2)cc1-n1ncc(C(=O)c2ccccc2)c1N` [Example 7, {5-amino-1-[2-methyl-5-(4H-[1,2,4]triazol-3-yl)-phenyl]-1H-pyrazol-4-yl}-phenyl-methanone], under 1 µM. The result for `Cc1ccc(C(=O)NC2CC2)cc1-n1ncc(C(=O)c2cccc(I)c2)c1N` [Example 6, 3-[5-amino-4-(3-iodo-benzoyl)-pyrazol-1-yl]-N-cyclopropyl-4-methyl-benzamide] reads under 1 µM; that for `CONC(=O)c1ccc(C)c(-n2ncc(C(=O)c3cccc(I)c3)c2N)c1` [Example 1, 3-[5-Amino-4-(3-iodo-benzoyl)-pyrazol-1-yl]-N-methoxy-4-methyl-benzamide], under 1 µM. The molecule `Cc1ccc(C(=O)O)cc1-n1ncc(C(=O)c2cccc(I)c2)c1N` [Example 5, 3-[5-amino-4-(3-iodo-benzoyl)-pyrazol-1-yl]-4-methyl-benzoic acid] came in with a half-inhibitory concentration (IC50) of 1 to 10 µM. Regarding `Cc1ccc(C(=O)O)cc1-n1ncc(C(=O)c2ccccc2)c1N` [Example 3, 3-(5-amino-4-benzoyl-pyrazol-1-yl)-4-methyl-benzoic acid], the IC50 lay within 1 to 10 µM. The molecule `Cc1ccc(C(=O)NC2CC2)cc1-n1cnc(C(=O)C2CCCCC2)c1N` [Example 18, 3-(5-Amino-4-cyclohexanecarbonyl-imidazol-1-yl)-N-cyclopropyl-4-methyl-benzamide] returned a 50% inhibitory concentration (IC50) of under 1 µM.

`CCOC(=O)c1c(OCC(=O)NCc2cccc(Cl)c2)nn(-c2cc(C(=O)NC3CC3)ccc2C)c1N` [Example 50, 5-Amino-3-[(3-chloro-benzylcarbamoyl)-methoxy]-1-(5-cyclopropylcarbamoyl-2-methyl-phenyl)-1H-pyrazole-4-carboxylic acid ethyl ester] displayed a half-maximal inhibitory concentration (IC50) of under 1 µM.

Molecule `CONC(=O)c1ccc(C)c(-n2ncc(C(=O)c3ccccc3)c2N)c1` [Example 2, 3-(5-Amino-4-benzoyl-pyrazol-1-yl)-N-methoxy-4-methyl-benzamide] showed an IC50 of under 1 µM.

Regarding `Cc1ccc(C(=O)NC2CC2)cc1-n1nc(OC2CCN(C(=O)OC(C)(C)C)CC2)c(C(=O)c2ccccc2)c1N` [Example 34, 4-[5-amino-4-benzoyl-1-(5-cyclopropylcarbamoyl-2-methyl-phenyl)-1H-pyrazol-3-yloxy]-piperidine-1-carboxylic acid tert-butyl ester], the IC50 is under 1 µM. `Cc1ccc(C(=O)NC2CC2)cc1-n1nc(OCCOCc2ccccc2)c(C(=O)c2ccccc2)c1N` [Example 33, 3-[5-amino-4-benzoyl-3-(2-benzyloxy-ethoxy)-pyrazol-1-yl]-N-cyclopropyl-4-methyl-benzamide]: the IC50 was under 1 µM. As to `Cc1ccc(C(=O)NC2CC2)cc1-n1ncc(C(=O)c2cccc(C=O)c2)c1N` [Example 9, 3-[5-amino-4-(3-formyl-benzoyl)-pyrazol-1-yl]-N-cyclopropyl-4-methyl-benzamide], the IC50 was under 1 µM. The result for `Cc1ccc(C(=O)NC2CC2)cc1-n1ncc(C(=O)c2cccc(C#N)c2)c1N` [Example 52, 3-[5-Amino-4-(3-cyanobenzoyl)-pyrazol-1-yl]-N-cyclopropyl-4-methylbenzamide] reads under 1 µM. For `Cc1ccc(C(=O)NC2CC2)cc1-n1ncc(C(=O)NC2CCCCC2C)c1N` (stereo not shown) [Example 128, 5-Amino-1-(5-cyclopropylcarbamoyl-2-methyl-phenyl)-1H-pyrazole-4-carboxylic acid (2-methyl-cyclohexyl)-amide], the IC50 is under 1 µM. In turn, `Cc1ccc(C(=O)NC2CC2)cc1-n1ncc(C(=O)c2ccccc2)c1N` [Example 4, 3-(5-amino-4-benzoyl-pyrazol-1-yl)-N-cyclopropyl-4-methyl-benzamide] showed an IC50 of under 1 µM.

Consider `Cc1ccc(C(=O)NC2CC2)cc1-n1ncc(C(=O)c2cccc(C3OCCO3)c2)c1N` [Example 8, 3-[5-amino-4-(3-[1,3]dioxolan-2-yl-benzoyl)-pyrazol-1-yl]-N-cyclopropyl-4-methyl-benzamide], for which the IC50 was under 1 µM. The result for `Cc1ccc(C(=O)NC2CC2)cc1-n1cnc(C(=O)c2ccccn2)c1N` [Example 76, 3-[5-Amino-4-(pyridine-2-carbonyl)-imidazol-1-yl]-N-cyclopropyl-4-methyl-benzamide] reads under 1 µM; that for `COc1nn(-c2cc(C(=O)NC3CC3)ccc2C)c(N)c1C(=O)c1ccccc1` [Example 30, 3-(5-amino-4-benzoyl-3-methoxy-pyrazol-1-yl)-N-cyclopropyl-4-methyl-benzamide], under 1 µM.

For orientation: IC50 means the concentration needed to halve the response being measured. High values mean weaker potency in that assay, low ones greater potency in that assay.
